The values that follow come from patent publication US20150064713A1, “METHODS, KITS AND MEANS FOR DETERMINING INTRACELLULAR INTERACTIONS” (priority 2013, published 2015).

The subject of this test is regulatory and catalytic subunits of the cAMP dependent protein kinase A (PKA). As to the kind of experiment: PKA regulatory/catalytic subunit interaction monitored in living cells via VSVG RII-β-PARC (bait) and mCherry-cat-α (prey), TIRFM. The test is classed as cell-based. The note with it: mCherry-cat-α prey, within seconds upon addition. An excerpt:
FIG. 8 Monitoring protein reaction dynamics inside individual cells. A: Domain structures of bait-PARCs to measure PKA subunit interactions. B: A bait-PARC containing the regulatory domain RII-β of PKA was co-expressed with the cytosolic prey protein (mCherry-cat- ? to monitor their interaction dynamics inside living cells. Left: Recruitment of the prey to bait microstructures before and after pharmacological perturbation. Right: Derived prey recruitment kinetics (Iso: Isoproterenol; Prop: Propranolol; F/I: forskolin+IBMX; see Supplementary Methods for details). Scale bar: 5 μm. c: Two distinct regulatory domains on bait-PARCs were co-expressed together with the prey protein mCherry-cat- ? . Left: Image of a representative experiment depicting cells grown on a DNA-immobilized antibody array. The checkerboard pattern of antibodies is overlayed with magenta (anti-HA) or cyan (anti-VSVG) circles. Right: The recruitment of prey proteins to the two distinct bait proteins was monitored in individual microstructured spots via TIRFM during pharmacological perturbation (Iso: Isoproterenol; ATP: adenosine triphosphate; F/I: forskolin+IBMX). Scale bar: 10 μm.
Agonist induced activation of G-protein coupled receptors (GPCRs) leads to the dissociation of regulatory and catalytic subunits of the cAMP dependent protein kinase A (PKA) (Wong and Scott, 2004). […]

Consider `CC(C)NCC(O)c1ccc(O)c(O)c1` (stereo not shown) [isoproterenol], for which the “interaction between bait and prey upon addition of agonist” value was “the interaction between bait and prey was lost”.
